From PMC4876393, “Structure of the Dictyostelium Myosin-II Heavy Chain Kinase A (MHCK-A) α-kinase domain apoenzyme reveals a novel autoinhibited conformation” (Scientific Reports, 2016) come the findings set out here.

Non-standard residues stand in square brackets, D forms with d. Residues, ends and D or L forms follow the SMILES beside them. pT = C[C@@H](OP(=O)(O)O)[C@H](N)C(=O)O

The subject of data set [1] is T1, Nc1ncnc2c1ncn2[C@@H]1O[C@H](COP(=O)(O)OP(=O)(O)OP(=O)(O)O)[C@@H](O)[C@H]1O.
T1 construct: A-CAT: alpha-kinase domain and Thr825 autophosphorylation site of MHCK-A
Kind of data set: ATPase assay by inorganic phosphate release (Pi ColorLock Gold) at 22 °C in 2 mM MgCl2, 1 mM dithiothreitol, 20 mM TES, pH 7.0. The data set is classed as biochemical. The procedure: (§1) Assays were carried out at 22 °C in a buffer containing 2 mM MgCl2, 1 mM dithiothreitol and 20 mM TES, pH 7.0. Kinase assays contained 20 μM myelin basic protein (MBP), 0.5–2 μM A-CAT and 200 μM [γ-^32P]ATP (specific activity 100 cpm/pmol). At each time point, 20 μl aliquots of the reaction mixture were spotted onto squares of Whatman P81 phosphocellulose paper, which were then washed 1% phosphoric acid, immersed in ScintiVerse Universal LS Mixture (Fisher Scientific), and counted using a Beckman LS 9000 scintillation counter. Assays to measure A-CAT-Δ809 activity in the presence of the QQG(p)TMVMPD and QQG(p)TMSMPD peptides were carried out as described. ATPase activity was assayed using 250 μM ATP and release of inorganic phosphate (Pi) was measured using the Pi ColorLock Gold phosphate detection system (Innova Biosciences). Data from the initial linear portion of the time courses were used to calculate kinase and ATPase activity. Nucleotide binding assays using mant-ATP and mant-ADP were carried out as previously described. Results represent the mean and standard deviation of at least 3 separate experiments.

For data set [2] the test system is unchanged. Kind of data set: Radiometric kinase assay with [γ-32P]ATP and 20 μM myelin basic protein as phosphate acceptor (P81 paper) at 22 °C in 2 mM MgCl2, 1 mM dithiothreitol, 20 mM TES, pH 7.0. Format: biochemical. The procedure:
as §1

The next data set addresses A-CAT D663A. Kind of data set: mant-nucleotide binding to A-CAT D663A. More on the design: species or system Dictyostelium. The conditions noted are these: for Kd: A-CAT D663A, 22 °C, 2 mM MgCl2, 1 mM dithiothreitol, 20 mM TES, pH 7.0, mean and standard deviation of at least 3 separate experiments; for effect of the D663A mutation on nucleotide binding: compared with wild-type A-CAT. The procedure: as §1

In a further data set the target is A-CAT D663S. Kind of data set: mant-nucleotide binding to A-CAT D663S. Particulars: for Kd: A-CAT D663S, 22 °C, 2 mM MgCl2, 1 mM dithiothreitol, 20 mM TES, pH 7.0, mean and standard deviation of at least 3 separate experiments; for effect of the D663S mutation on nucleotide binding: compared with wild-type A-CAT. More on the design: species or system Dictyostelium. The procedure:
as §1

The next data set concerns the target A-CAT Y647F. In words: mant-nucleotide binding to A-CAT Y647F. The conditions noted are these: 22 °C, 2 mM MgCl2, 1 mM dithiothreitol, 20 mM TES, pH 7.0, mean and standard deviation of at least 3 separate experiments. More on the design: species or system Dictyostelium. The procedure: as §1
A further data set concerns the target A-CAT Y647A. In words: mant-nucleotide binding to A-CAT Y647A. On the set-up: species or system Dictyostelium. The conditions noted are these: for Kd: A-CAT Y647A, 22 °C, 2 mM MgCl2, 1 mM dithiothreitol, 20 mM TES, pH 7.0, mean and standard deviation of at least 3 separate experiments; for effect of the Y647A mutation on nucleotide binding: compared with wild-type A-CAT. The procedure:
as §1

A further data set has as its target T2, A-CAT WT (Dictyostelium discoideum, UniProt P42527).
T2 construct: gene mhkA; A-CAT: alpha-kinase domain and Thr825 autophosphorylation site of MHCK-A; expressed in E. coli
T2 sequence (P42527 552-841): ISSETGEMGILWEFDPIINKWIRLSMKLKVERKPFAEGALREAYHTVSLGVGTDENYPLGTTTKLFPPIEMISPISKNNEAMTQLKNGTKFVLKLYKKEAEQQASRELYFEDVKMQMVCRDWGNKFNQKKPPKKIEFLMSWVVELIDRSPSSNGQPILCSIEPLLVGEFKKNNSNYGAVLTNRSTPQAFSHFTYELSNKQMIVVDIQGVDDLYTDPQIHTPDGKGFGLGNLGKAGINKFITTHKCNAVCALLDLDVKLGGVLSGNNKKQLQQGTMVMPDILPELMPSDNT
In words: Nucleotide binding assay with fluorescent mant-ATP on purified A-CAT, carried out as previously described (ref 51); at least 3 separate experiments. Particulars: SD, n = 3. The procedure:
as §1

The next data set has as its target T3, D663A (Dictyostelium discoideum, UniProt P42527, D663A).
T3 construct: gene mhkA; A-CAT: alpha-kinase domain and Thr825 autophosphorylation site of MHCK-A; expressed in E. coli
T3 sequence (P42527 552-841 D663A): T2 sequence (P42527 552-841)
The description is as above. The conditions noted are these: read-out: mant-ATP Kd; SD, n = 3. The procedure:
as §1

The next data set concerns the target T4, D663S (Dictyostelium discoideum, UniProt P42527, D663S).
T4 construct: gene mhkA; A-CAT: alpha-kinase domain and Thr825 autophosphorylation site of MHCK-A
T4 sequence (P42527 552-841 D663S): T2 sequence (P42527 552-841)
Described as above. The conditions noted are these: read-out: mant-ATP Kd; SD, n = 3. The procedure: as §1

A further data set addresses T5, Y647A (Dictyostelium discoideum, UniProt P42527, Y647A).
T5 construct: gene mhkA; A-CAT: alpha-kinase domain and Thr825 autophosphorylation site of MHCK-A
T5 sequence (P42527 552-841 Y647A): T2 sequence (P42527 552-841)
Described as above. Particulars: read-out: mant-ATP Kd; SD, n = 3. The procedure:
as §1

The target in another data set is T6, Y647F (Dictyostelium discoideum, UniProt P42527, Y647F).
T6 construct: gene mhkA; A-CAT: alpha-kinase domain and Thr825 autophosphorylation site of MHCK-A
T6 sequence (P42527 552-841 Y647F): T2 sequence (P42527 552-841)
Described as above. Particulars: read-out: mant-ATP Kd; SD, n = 3. The procedure:
as §1

The target of the next data set is T7, A-CAT-Δ809 (Dictyostelium discoideum, UniProt P42527).
T7 construct: A-CAT encompasses the α-kinase domain and Thr825 autophosphorylation site of MHCK-A; made in house; host or cells: E. coli (printed for A-CAT and A-CAT-D663A)
T7 sequence (P42527 552-809 limits assumed): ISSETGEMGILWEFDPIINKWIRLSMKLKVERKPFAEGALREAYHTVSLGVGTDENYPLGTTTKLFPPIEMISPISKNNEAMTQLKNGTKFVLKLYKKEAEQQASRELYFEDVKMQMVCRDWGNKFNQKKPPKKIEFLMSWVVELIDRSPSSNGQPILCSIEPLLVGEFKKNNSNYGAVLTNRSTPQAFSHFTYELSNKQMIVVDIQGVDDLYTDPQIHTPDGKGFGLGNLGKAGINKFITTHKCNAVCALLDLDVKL
In words: Activation of truncated A-CAT-Δ809 kinase activity by phosphopeptides (Pi-pocket binding). The data set is classed as biochemical. Particulars: 22 °C, pH 7.0, mean and standard deviation of at least 3 separate experiments.

The Km is the substrate concentration at which the rate is half of its maximum. A word on the kcat: it is the number of substrate molecules converted per active site and unit of time at saturation. What is called Kd is the free concentration of one partner at which half of the binding sites on the other are occupied at equilibrium, for simple one-to-one binding.

Experimental for A-CAT-Δ809: (c) The kinase activity of A-CAT-Δ809 was assayed in the presence of peptides with the sequences QQG(p)TMVMPD (closed circles) or a QQG(p)TMSMPD (open circles). […] Kinase activities are reported as a percentage of wild-type A-CAT activity.
To test whether a hydrophobic residue in the P + 2 position favors binding to the Pi-pocket, experiments were carried out using a truncated A-CAT (A-CAT-Δ809) that lacks the activating Thr825 site of autophosphorylation and two phosphopeptides: one with a valine and one with a serine at the P + 2 position (QQG(p)TMVMPD and QQG(p)TMSMPD) (Fig. 3c).
Assays were carried out at 22 °C in a buffer containing 2 mM MgCl2, 1 mM dithiothreitol and 20 mM TES, pH 7.0. Kinase assays contained 20 μM myelin basic protein (MBP), 0.5–2 μM A-CAT and 200 μM [γ-^32P]ATP (specific activity 100 cpm/pmol). At each time point, 20 μl aliquots of the reaction mixture were spotted onto squares of Whatman P81 phosphocellulose paper, which were then washed 1% phosphoric acid, immersed in ScintiVerse Universal LS Mixture (Fisher Scientific), and counted using a Beckman LS 9000 scintillation counter. Assays to measure A-CAT-Δ809 activity in the presence of the QQG(p)TMVMPD and QQG(p)TMSMPD peptides were carried out as described[29]. […] Data from the initial linear portion of the time courses were used to calculate kinase and ATPase activity.

As for Y647F (Dictyostelium discoideum; Y647F), in [1], the Km was 64 ± 2 µM and the kcat is 0.00633 ± 0.00117 s⁻¹. Besides, in data set [2], the Km turned out to be 65 ± 35 µM and the kcat worked out at 0.00045 ± 0.000117 s⁻¹.

Consider `CNc1ccccc1C(=O)O[C@H]1[C@@H](O)[C@H](n2cnc3c(N)ncnc32)O[C@@H]1COP(=O)(O)OP(=O)(O)O` [mant-ADP], for which the Kd was determined as 8 ± 2 µM on A-CAT D663A, 12 ± 2 µM on A-CAT D663S, 15 ± 2 µM at A-CAT Y647F and 30 ± 2 µM on A-CAT Y647A. For the same molecule, in the data set with A-CAT D663A, the “effect of the D663A mutation on nucleotide binding” value is on record as “increased the affinity of A-CAT for nucleotide”. Further, the “effect of the D663S mutation on nucleotide binding” value in the data set on A-CAT D663S was “increased the affinity of A-CAT for nucleotide”. Further, the “effect of the Y647A mutation on nucleotide binding” value in the data set with A-CAT Y647A is given as “weakened the binding”.

Take Y647A (Dictyostelium discoideum; Y647A): the kcat in data set [1] is 0.00483 ± 0.00117 s⁻¹; in data set [2], 0.00367 ± 0.000333 s⁻¹. In addition, the Km in [2] came out at 162 ± 38 µM.

With D663S (Dictyostelium discoideum; D663S), the Km in [1] came out at 31 ± 7 µM; in [2], 29 ± 16 µM. The kcat in [1] came out at 0.00733 ± 0.00267 s⁻¹; in data set [2], 0.00103 ± 0.000117 s⁻¹.

As to `CNc1ccccc1C(=O)O[C@H]1[C@@H](O)[C@H](n2cnc3c(N)ncnc32)O[C@@H]1COP(=O)(O)OP(=O)(O)OP(=O)(O)O` [mant-ATP], on A-CAT D663A, the Kd is 3.2 ± 0.9 µM and the “effect of the D663A mutation on nucleotide binding” value is reported as “increased the affinity of A-CAT for nucleotide”. Further, at A-CAT D663S, binding was characterised by a dissociation constant (Kd) of 2.1 ± 0.5 µM and the “effect of the D663S mutation on nucleotide binding” value is “increased the affinity of A-CAT for nucleotide”. The molecule also registered a Kd on A-CAT Y647F of 4.3 ± 1 µM. Also, on A-CAT Y647A, the dissociation constant (Kd) was 10 ± 3 µM and the “effect of the Y647A mutation on nucleotide binding” value is “weakened the binding”.

For the molecule `CNc1ccccc1C(=O)O[C@H]1[C@@H](O)[C@H](n2cnc3c(N)ncnc32)O[C@@H]1CO[P@@](=O)(O)O[P@](=O)(O)OP(=O)(O)O` [mant-ATP, 2'/3'-O-(N-methylanthraniloyl)adenosine 5'-triphosphate], the Kd on A-CAT WT is 4.8 ± 0.6 µM; on D663A it was 3.2 ± 0.9 µM; on D663S, 2.1 ± 0.5 µM; on Y647A, 10 ± 3 µM; at Y647F, 4.3 ± 1 µM.

Consider `CSCC[C@H](NC(=O)[C@@H](NC(=O)CNC(=O)[C@H](CCC(N)=O)NC(=O)[C@@H](N)CCC(N)=O)[C@@H](C)OP(=O)(O)O)C(=O)N[C@@H](CO)C(=O)N[C@@H](CCSC)C(=O)N1CCC[C@H]1C(=O)N[C@@H](CC(=O)O)C(=O)O` [QQG(p)TMSMPD] (H-QQG[pT]MSMPD-OH), for which the Kd on A-CAT-Δ809 (hyperbolic fit of A-CAT-Δ809 kinase activity vs peptide, assayed as described in ref [29], 2 mM MgCl2, 1 mM dithiothreitol, 20 mM TES) came to 98 ± 12 µM. On A-CAT-Δ809 (kinase activity as a percentage of wild-type A-CAT activity, hyperbolic fit), the Vmax was determined as 51 ± 3%.
